The text below walks through data of ChEMBL document CHEMBL5331058, “Review of bioactivity and structure-activity relationship on baicalein (5,6,7-trihydroxyflavone) and wogonin (5,7-dihydroxy-8-methoxyflavone) derivatives: Structural modifications inspired from flavonoids in Scutellaria baicalensis” (Eur J Med Chem, 2022).

pEC50, pIC50: −log10 of the molar value. Converted amounts (≈) assume the structure as drawn.

The target in data set [1] is T1, Acetylcholinesterase (Rattus norvegicus, UniProt P37136).
T1 sequence (P37136 whole entry): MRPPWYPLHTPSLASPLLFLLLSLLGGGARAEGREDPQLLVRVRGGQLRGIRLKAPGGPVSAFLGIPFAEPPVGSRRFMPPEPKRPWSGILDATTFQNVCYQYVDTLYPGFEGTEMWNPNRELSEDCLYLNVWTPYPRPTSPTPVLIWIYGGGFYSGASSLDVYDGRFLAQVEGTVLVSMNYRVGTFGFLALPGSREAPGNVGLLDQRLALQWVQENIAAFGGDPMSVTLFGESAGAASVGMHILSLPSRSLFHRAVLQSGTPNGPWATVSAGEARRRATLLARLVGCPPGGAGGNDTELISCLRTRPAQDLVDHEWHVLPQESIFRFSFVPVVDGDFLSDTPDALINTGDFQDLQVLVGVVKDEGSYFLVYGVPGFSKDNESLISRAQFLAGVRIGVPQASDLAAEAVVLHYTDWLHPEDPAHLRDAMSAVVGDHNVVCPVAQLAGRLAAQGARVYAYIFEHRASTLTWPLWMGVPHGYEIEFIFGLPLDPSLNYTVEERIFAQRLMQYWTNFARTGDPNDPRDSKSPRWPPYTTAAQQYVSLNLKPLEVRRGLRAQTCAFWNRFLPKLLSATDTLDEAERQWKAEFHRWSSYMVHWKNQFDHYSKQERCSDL
Description: Inhibition of rat cortex homogenate AChE preincubated for 5 mins followed by compound addition and measured after 15 mins by Ellman's method. On the technique in general: DTNB colorimetry detects thiols as they appear.

The target in a further data set is Butyrylcholinesterase (Rattus norvegicus, UniProt Q9JKC1). Description: Inhibition of rat serum homogenate BuChE preincubated for 5 mins followed by compound addition and measured after 15 mins by Ellman's method. It is filed as cell-free.
Data set [2] has as its system PC-12. Put plainly: Antioxidant activity in H2O2-induced cell damage in rat PC12 cells at 50 uM. It is filed as functional.
Another data set deals with Candida albicans. Put plainly: Antifungal activity against Candida albicans assessed as reduction in fungal growth incubated for 16 hrs by microdilution method. The format is functional. (In broth dilution the organism is exposed to a series of concentrations in liquid medium.)
The next data set deals with Staphylococcus aureus. Description: Antibacterial activity against Staphylococcus aureus assessed as bacterial growth inhibition incubated for 16 hrs. It is filed as functional.
Another data set concerns Escherichia coli. Description: Antibacterial activity against Escherichia coli assessed as bacterial growth inhibition. It is filed as functional.
For data set [3], the target named is T2, Acetylcholinesterase (Homo sapiens, UniProt P22303). Description: Inhibition of human AChE by Ellman's spectrophotometric method.
For data set [4], the target named is T3, Alpha glucosidase (Homo sapiens, UniProt O43451+P10253+P14410+Q2M2H8). Description: Inhibition of alpha glucosidase (unknown origin). It is filed as protein assay.
Data set [5] addresses T3, Alpha glucosidase. Description: Inhibition of alpha glucosidase (unknown origin) spectrophotometric analysis. It is filed as protein assay.
The test system of a further data set is HepG2. Description: Antitumor activity against human HepG2 cells assessed as reduction in cell viability at 25 uM by colorimetric MTT assay relative to control. It is filed as functional. For orientation: Tetrazolium assays rely on reduction of a dye to a coloured formazan, in cell work by metabolically active cells.
The subject of another data set is DU-145. Description: Anticancer activity against human DU-145 cells assessed as inhibition of cell growth at 100 uM by colorimetric MTT assay relative to control. It is filed as functional. Also noted: scale not given: the % may be the effect or the level left.
Another data set relates to Influenza A virus. Description: Antiviral activity against influenza A virus H1N1 infected in MDCK cells assessed as reduction in virus induced cytopathic effect by CPE assay. It is filed as functional, organism-based.
The nature of data set [6]: Permeability of the compound across blood brain barrier at pH 7.4 incubated for 4 hrs by parallel artificial membrane permeation assay. It is filed as ADME. To be noted: pampa, pH 7.4, 4 h.
Data set [7] concerns the target T2, Acetylcholinesterase. Put plainly: Inhibition of AChE (unknown origin).
The target in data set [8] is Amyloid-beta precursor protein (Homo sapiens) (UniProt P05067). Description: Inhibition of self-induced amyloid beta (unknown origin) aggregation relative to control. Conditions: concentration not given here.
Data set [9] shares this target. Put plainly: Inhibition of Cu2+ induced amyloid beta (unknown origin) aggregation relative to control. Conditions: concentration not given here.
The target is the same in data set [10]. Description: Disaggregation of self-induced amyloid beta (unknown origin) fibrils relative to control.
Data set [11] shares this target. Put plainly: Disaggregation of Cu2+ induced amyloid beta (unknown origin) fibrils relative to control.
The target of data set [12] is Acetylcholinesterase (Electrophorus electricus, UniProt O42275). Put plainly: Inhibition of electric eel AChE.
In data set [13] the target is T2, Acetylcholinesterase. Description: Inhibition of human AChE.
Data set [14] deals with SH-SY5Y. Put plainly: Neuroprotective activity against H2O2-induced cell damage in human SH-SY5Y cells assessed as cell viability preincubated for 36 hrs followed by H2O2 addition and measured after 12 hrs by MTT assay. It is filed as functional, cell-based.
Data set [15] concerns SH-SY5Y. Description: Neuroprotective activity against H2O2-induced cell damage in human SH-SY5Y cells assessed as reduction in cell viability preincubated for 36 hrs followed by H2O2 addition and measured after 12 hrs by MTT assay. It is filed as functional, cell-based.
The next data set deals with HGC-27. Description: Antiproliferative activity against human HGC-27 cells assessed as reduction in cell viability incubated for 48 hrs by MTT assay. To be noted: HGC-27, 48 h. It is filed as functional, cell-based.
In a further data set the test system is MGC-803. Description: Antiproliferative activity against human MGC-803 cells assessed as reduction in cell viability incubated for 48 hrs by MTT assay. To be noted: MGC-803, 48 h. It is filed as functional, cell-based.
For data set [16], the system named is PC-12. Description: Cytotoxicity against H2O2-induced cell damage in rat PC12 cells assessed as reduction in cell viability at 50 uM incubated for 24 hrs by MTT assay relative to control. It is filed as functional.
The nature of data set [17]: Antioxidant activity assessed as DPPH radical scavenging activity. The format is functional.
Data set [18] is described as follows: Aqueous solubility of compound by UV spectroscopy method. The format is physicochemical. To be noted: water.
Data set [19] concerns the target Thymic stromal lymphopoietin (Homo sapiens) (UniProt Q969D9). Description: Inhibition of N-terminal FLAG tagged/C-terminal 6 His tagged human TSLP at 1 uM preincubated for 2 hrs followed by compound addition and measured after 18 hrs by ELISA method relative to control. Conditions: time 20.0 hrs.

Sequence of Amyloid-beta precursor protein (Homo sapiens) (P05067 whole entry): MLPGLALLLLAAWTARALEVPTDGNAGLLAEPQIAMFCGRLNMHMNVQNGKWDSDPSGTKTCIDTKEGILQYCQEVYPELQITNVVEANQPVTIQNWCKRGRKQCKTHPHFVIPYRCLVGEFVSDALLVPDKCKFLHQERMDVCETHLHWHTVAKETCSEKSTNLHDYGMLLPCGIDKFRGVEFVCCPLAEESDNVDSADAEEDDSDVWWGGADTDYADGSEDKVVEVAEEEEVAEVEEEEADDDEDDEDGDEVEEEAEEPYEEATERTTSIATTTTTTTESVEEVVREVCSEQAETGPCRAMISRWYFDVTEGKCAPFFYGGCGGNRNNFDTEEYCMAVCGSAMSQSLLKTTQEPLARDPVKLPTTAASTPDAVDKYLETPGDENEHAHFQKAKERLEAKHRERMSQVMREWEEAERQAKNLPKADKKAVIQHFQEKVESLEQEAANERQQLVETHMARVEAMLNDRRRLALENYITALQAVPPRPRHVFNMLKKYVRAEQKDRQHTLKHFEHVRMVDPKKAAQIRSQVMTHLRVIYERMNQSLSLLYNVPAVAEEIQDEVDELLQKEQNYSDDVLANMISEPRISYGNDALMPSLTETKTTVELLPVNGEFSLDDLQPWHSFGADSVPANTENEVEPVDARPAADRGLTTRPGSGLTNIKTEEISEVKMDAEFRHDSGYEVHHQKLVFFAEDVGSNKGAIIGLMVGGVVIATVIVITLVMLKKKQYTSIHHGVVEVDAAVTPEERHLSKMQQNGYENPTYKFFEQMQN
T2 sequence (P22303 whole entry): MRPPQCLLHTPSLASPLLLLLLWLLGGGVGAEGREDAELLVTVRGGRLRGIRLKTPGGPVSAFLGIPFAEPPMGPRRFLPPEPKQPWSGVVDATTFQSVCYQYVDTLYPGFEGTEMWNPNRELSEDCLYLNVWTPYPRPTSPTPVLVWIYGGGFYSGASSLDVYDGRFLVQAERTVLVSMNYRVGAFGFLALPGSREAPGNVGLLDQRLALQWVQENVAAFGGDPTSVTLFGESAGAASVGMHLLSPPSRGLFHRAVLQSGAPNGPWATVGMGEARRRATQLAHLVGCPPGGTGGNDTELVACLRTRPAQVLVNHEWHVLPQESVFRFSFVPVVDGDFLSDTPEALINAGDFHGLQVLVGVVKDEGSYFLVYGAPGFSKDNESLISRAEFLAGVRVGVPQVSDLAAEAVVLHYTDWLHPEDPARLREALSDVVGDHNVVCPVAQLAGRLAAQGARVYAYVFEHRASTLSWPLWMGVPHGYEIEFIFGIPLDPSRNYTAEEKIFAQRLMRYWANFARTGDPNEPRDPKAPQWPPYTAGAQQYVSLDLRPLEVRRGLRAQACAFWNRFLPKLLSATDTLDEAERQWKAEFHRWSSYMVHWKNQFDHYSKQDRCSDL
Sequence of Butyrylcholinesterase (Q9JKC1 whole entry): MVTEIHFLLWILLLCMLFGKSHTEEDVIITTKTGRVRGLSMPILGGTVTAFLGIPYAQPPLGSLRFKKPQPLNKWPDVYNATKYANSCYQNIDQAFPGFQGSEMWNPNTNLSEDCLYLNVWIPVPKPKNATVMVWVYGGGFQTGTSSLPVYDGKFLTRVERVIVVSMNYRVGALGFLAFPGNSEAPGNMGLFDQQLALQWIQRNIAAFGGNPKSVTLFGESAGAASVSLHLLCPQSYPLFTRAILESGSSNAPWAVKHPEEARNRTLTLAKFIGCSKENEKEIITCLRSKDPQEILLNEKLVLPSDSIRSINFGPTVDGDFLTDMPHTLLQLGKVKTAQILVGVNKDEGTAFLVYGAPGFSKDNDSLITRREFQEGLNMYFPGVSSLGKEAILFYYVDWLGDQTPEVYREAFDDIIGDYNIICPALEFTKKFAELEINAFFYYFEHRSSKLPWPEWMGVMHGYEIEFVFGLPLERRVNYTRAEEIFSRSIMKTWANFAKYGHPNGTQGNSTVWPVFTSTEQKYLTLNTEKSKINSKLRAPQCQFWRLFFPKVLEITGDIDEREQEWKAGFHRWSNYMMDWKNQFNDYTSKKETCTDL
Sequence of Acetylcholinesterase (Electrophorus electricus, UniProt O42275) (O42275 whole entry): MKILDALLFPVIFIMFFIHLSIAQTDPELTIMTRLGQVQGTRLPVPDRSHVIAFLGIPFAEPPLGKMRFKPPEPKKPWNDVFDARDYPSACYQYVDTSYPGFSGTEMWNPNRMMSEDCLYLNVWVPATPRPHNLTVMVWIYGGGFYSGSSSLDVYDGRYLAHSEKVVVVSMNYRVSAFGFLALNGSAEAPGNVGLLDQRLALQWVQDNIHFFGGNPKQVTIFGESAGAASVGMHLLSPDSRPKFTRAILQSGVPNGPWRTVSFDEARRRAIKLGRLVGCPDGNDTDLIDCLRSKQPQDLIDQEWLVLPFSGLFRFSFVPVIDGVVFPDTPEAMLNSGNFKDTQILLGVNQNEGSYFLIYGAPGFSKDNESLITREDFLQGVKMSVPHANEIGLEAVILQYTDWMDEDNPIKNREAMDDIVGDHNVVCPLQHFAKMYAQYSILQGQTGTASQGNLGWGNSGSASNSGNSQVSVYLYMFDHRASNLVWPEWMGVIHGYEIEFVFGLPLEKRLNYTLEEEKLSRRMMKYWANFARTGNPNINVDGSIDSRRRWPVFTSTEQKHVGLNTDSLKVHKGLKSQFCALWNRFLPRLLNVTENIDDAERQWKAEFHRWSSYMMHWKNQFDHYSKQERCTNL
Sequence of Thymic stromal lymphopoietin (Homo sapiens) (Q969D9 whole entry): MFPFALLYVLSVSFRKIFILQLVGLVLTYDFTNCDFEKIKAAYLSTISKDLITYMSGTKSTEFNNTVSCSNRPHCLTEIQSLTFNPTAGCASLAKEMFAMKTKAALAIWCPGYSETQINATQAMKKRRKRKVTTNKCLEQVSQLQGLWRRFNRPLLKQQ

As a reminder, the pIC50 is the negative decadic logarithm of the IC50, by convention in mol/L. As to `CCN(CC)C(=O)Oc1ccc(-c2cc(=O)c3c(O)c(OC)c(OC)cc3o2)cc1`, the figures for the negative logarithm of the IC50 (pIC50) at Acetylcholinesterase [1] and on Butyrylcholinesterase were 5.92 and 4.66, respectively.

On to `CC(C)N(CCOc1c(O)cc2oc(-c3ccc(O)cc3)cc(=O)c2c1O)C(C)C`, for which, in the data set on PC-12 [2], the Activity turned out to be 72.12%. The MIC is the lowest concentration that inhibits growth of the organism. In the case of `CC(C)=CCCC(C)CCOC(=O)[C@H]1O[C@@H](Oc2cc3oc(-c4ccccc4)cc(=O)c3c(O)c2O)[C@H](O)[C@@H](O)[C@@H]1O` (stereo not given in full), the results for the minimal inhibitory concentration (MIC) in the data set on Candida albicans, in the data set with Staphylococcus aureus and in the data set on Escherichia coli were 400 µM (≈ 234 µg/mL), 800 µM (≈ 468 µg/mL) and 3200 µM (≈ 1870 µg/mL), respectively. As to `COc1cc2oc(-c3ccc(NCCNc4c5c(nc6cc(Cl)ccc46)CCCC5)cc3)cc(=O)c2c(OC)c1OC`, the pIC50 against Acetylcholinesterase [3] is 5.33. By IC50 is commonly meant the concentration needed to halve the response being measured. On to `CC(c1cc(O)c2c(=O)cc(-c3ccccc3)oc2c1)c1ccc(O)cc1O` (stereo not given), for which the IC50 on Alpha glucosidase [4] stood at 44.11 µM. With `CCN(CCCCOc1ccc(-c2cc(=O)c3c(O)c(OC)c(OC)cc3o2)cc1)Cc1ccccc1OC`, the IC50 against Alpha glucosidase [5] turned out to be 25.78 µM. Consider `COc1cc2oc(-c3ccc(N)cc3)cc(=O)c2c(OC)c1OC`, for which the values for the Activity with HepG2 and in the data set on DU-145 were below 2% and 60%, respectively. As usually defined, the pEC50 is −log10 of the EC50, conventionally taken in molar units. With `COc1c(O)cc2oc(-c3ccccc3Br)cc(=O)c2c1O`, in the data set with Influenza A virus, the negative logarithm of the EC50 (pEC50) was 5.40.

Take `CN1C(=O)[C@@H](Cc2ccc(NC(=O)[C@H]3O[C@@H](Oc4cc5oc(-c6ccccc6)cc(=O)c5c(O)c4O)[C@H](O)[C@@H](O)[C@@H]3O)cc2)NC(=O)[C@H]1Cc1ccc2ccccc2c1`: the BBB in [6] is on record as 7.22%. Broadly, the inhibition is the drop in the measured response relative to a control, in per cent. Take `CCN(C)C(=O)Oc1ccc(-c2cc(=O)c3c(O)c(O)c(OC(=O)N[C@@H](Cc4ccccc4)C(=O)OC(C)(C)C)cc3o2)cc1`: the negative logarithm of the IC50 (pIC50) against Acetylcholinesterase [7] was 5.33; on Acetylcholinesterase [12] it was 5.22; against Acetylcholinesterase [13], 5.10. For the same compound, the inhibition in data set [8] is 89.2%; in data set [9], 86.2%. Further, the Activity in data set [10] was 84.2%; in [11], 78.7%. In the case of `O=C(NC(Cc1ccccc1)C(=O)Oc1c(O)cc2oc(-c3ccccc3)cc(=O)c2c1O)OCc1ccccc1` (stereo not given), the pEC50 with SH-SY5Y [14] was 5.37; with SH-SY5Y [15] it was 4.61.

Regarding `COc1c(O)cc2oc(-c3cccc(Br)c3)cc(=O)c2c1O`, the negative logarithm of the EC50 (pEC50) in the data set on Influenza A virus was 5.35.

As for `COC(=O)c1cc(Br)ccc1OCCCOc1ccc(-c2cc(=O)c3c(OC)c(OC)c(OC)cc3o2)cc1`, the pIC50 was 4.99 in the data set on HGC-27 and 4.77 with MGC-803. For orientation: solubility means the concentration that dissolves in the medium under given conditions. For the compound `COc1c(O)cc2oc(-c3ccc(O)cc3)cc(=O)c2c1O` [HISPIDULIN], the inhibition at 50 µM with PC-12 [16] amounted to 94.2%. The pIC50 in data set [17] was 4.72. For the same compound, the concentration in solution in [18] (solubility) came to 15.3 µg/mL (≈ 51.1 µM). Turning to `O=c1cc(-c2cccc(-c3ccc(O)cc3)c2)oc2cc(O)cc(O)c12`, the inhibition in data set [19] is 77.5%. Turning to `COc1c(C(C)c2ccc(O)cc2O)cc2oc(-c3ccccc3)cc(=O)c2c1O` (stereo not given), the IC50 against Alpha glucosidase [4] was 39.21 µM.
